Measured values taken from patent US20220315554A1, “COMPOUNDS COMPRISING A […] LIGAND AND USE THEREOF” (priority 2019, published 2022).
Numbered stars: 1 amine (or outer) side, 2 acyl side, 3 side chain; on linkers, the order of the positions; unused ones are H or OH. Bridge positions count the residues as written; N and C are the ends. Square brackets hold non-standard residues; d marks the D form. Peptide text beside a SMILES is read from it. * marks the point of attachment. X4 = O=C1CN2CCN3CCN(CC(=O)N4CCN(Cc5cc(C[*:1])cc(C[*:2])c5)CC4)CCN(CC2)CC(=O)[O][In]([O]1)[O]C(=O)C3; X11 = O=C(CN1CCN2CCN3CCN(CC1)CC(=O)[O][In]([O]C(=O)C2)[O]C(=O)C3)NCCSCc1cc(CSCCN[*:2])cc(C[*:1])c1; X7 = O=C(CN1CCN2CCN3CCN(CC1)CC(=O)[O][In]([O]C(=O)C2)[O]C(=O)C3)NCCSCc1cc(C[*:1])cc(C[*:2])c1; X12 = NCCNCC(CNCCN)C(=O)NCCCOCCOCCOCCCN*; mXylylene = c1cc(C[*:1])cc(C[*:2])c1; Pentanesulfonyl = CCCCCS(=O)(=O)*; Suc = O=C(CCC(=O)[*:2])[*:1]; Nle = CCCC[C@H](N)C(=O)O; Hexanoyl = CCCCCC(=O)*; Sar = CNCC(=O)O

Tests used:
[1] = target: T1, FAP-expressing human WI-38 fibroblasts (Homo sapiens, UniProt Q12884); experiment: Competitive FACS binding assay; conditions: pIC50 Category (FACS), competition with 3 nM Cy5-labeled compound, 4° C., 1 hour
T1 construct: FAP-expressing human WI-38 fibroblasts (ECACC) were cultured in EMEM; host or cells: WI-38 human fibroblasts
T1 sequence (Q12884 1-760): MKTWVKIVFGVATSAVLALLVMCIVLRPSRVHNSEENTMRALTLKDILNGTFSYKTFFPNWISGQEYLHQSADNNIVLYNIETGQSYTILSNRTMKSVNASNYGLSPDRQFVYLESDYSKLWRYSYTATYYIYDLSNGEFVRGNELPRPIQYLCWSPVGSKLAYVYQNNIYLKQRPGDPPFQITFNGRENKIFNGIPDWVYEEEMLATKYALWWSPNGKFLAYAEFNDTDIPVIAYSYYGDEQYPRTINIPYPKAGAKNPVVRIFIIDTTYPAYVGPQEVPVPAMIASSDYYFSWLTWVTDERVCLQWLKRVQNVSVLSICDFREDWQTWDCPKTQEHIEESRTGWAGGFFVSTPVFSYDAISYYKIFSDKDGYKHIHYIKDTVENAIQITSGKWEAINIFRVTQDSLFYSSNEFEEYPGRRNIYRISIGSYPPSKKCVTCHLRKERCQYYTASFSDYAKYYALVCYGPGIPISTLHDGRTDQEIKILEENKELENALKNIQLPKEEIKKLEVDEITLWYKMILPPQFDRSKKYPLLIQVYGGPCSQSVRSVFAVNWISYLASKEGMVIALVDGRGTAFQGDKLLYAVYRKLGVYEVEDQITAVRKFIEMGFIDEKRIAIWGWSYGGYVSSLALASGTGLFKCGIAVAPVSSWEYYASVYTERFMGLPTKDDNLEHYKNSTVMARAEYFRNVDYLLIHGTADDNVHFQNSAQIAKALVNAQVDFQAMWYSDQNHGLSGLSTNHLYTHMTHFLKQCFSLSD
Method: Cells were analyzed in an Attune NxT flow cytometer. […]

Human recombinant FAP [2] = target: T2, Human recombinant FAP (Homo sapiens, UniProt Q12884); experiment: Surface plasmon resonance (Biacore) assay; type: binding
T2 sequence (Q12884 1-760): T1 sequence (Q12884 1-760)

Human recombinant FAP [3] = target: T2, Human recombinant FAP; experiment: FRET-based FAP protease activity assay; type: biochemical; set-up: purchased R&D systems 3715-SE; conditions: pIC50 Category (Activity), FRET substrate, 37° C.

## CCCCCC(=O)N[C@H]1CSCc2cc(CSCCNC(=O)CN3CCN4CCN5CCN(CC3)CC(=O)[O][In]([O]C(=O)C4)[O]C(=O)C5)cc(c2)CSC[C@@H](C(N)=O)NC(=O)[C@H](Cc2ccccc2)NC(=O)[C@H](CCC(N)=O)NC(=O)[C@H]([C@@H](C)O)NC(=O)[C@@H]2CCCN2C(=O)[C@@H]2CCCN2C1=O [3BP-3712, Hex-[Cys(tMeBn(InDOTA-AET))-Pro-Pro-Thr-Gln-Phe-Cys]-NH2]
[1]
  IC50: < 10 nM
Human recombinant FAP [2]
  Kd: < 10 nM
Human recombinant FAP [3]
  IC50: < 10 nM

## CCCCCC(=O)N[C@H]1CSCc2cc(CSCCNC(=O)CN3CCN4CCN5CCN(CC3)CC(=O)[O][In]([O]C(=O)C4)[O]C(=O)C5)cc(c2)CSCCNC(=O)[C@H](Cc2ccccc2)NC(=O)[C@H](CCC(N)=O)NC(=O)[C@H]([C@@H](C)O)NC(=O)[C@@H]2CCCN2C(=O)[C@@H]2CCCN2C1=O [3BP-3713, Hex-[Cys(tMeBn(InDOTA-AET))-Pro-Pro-Thr-Gln-Phe-AET]] (Hexanoyl-CPPTQF; linker 1-C via X11)
[1]
  IC50: < 10 nM
Human recombinant FAP [2]
  Kd: < 10 nM
Human recombinant FAP [3]
  IC50: < 10 nM

## CCCCCC(=O)N[C@H]1CSCc2cc(CSCCNC(=O)CN3CCN4CCN5CCN(CC3)CC(=O)[O][In]([O]C(=O)C4)[O]C(=O)C5)cc(c2)CSC[C@@H](C(=O)NCC(=O)O)NC(=O)[C@H](Cc2ccccc2)NC(=O)[C@H](CCC(N)=O)NC(=O)[C@H]([C@@H](C)O)NC(=O)[C@@H]2CCCN2C(=O)[C@@H]2CCCN2C1=O [3BP-3714, Hex-[Cys(tMeBn(InDOTA-AET))-Pro-Pro-Thr-Gln-Phe-Cys]-Gly-OH] (Hexanoyl-CPPTQFCG-OH; linker 1-7 via X7)
[1]
  IC50: < 10 nM
Human recombinant FAP [2]
  Kd: < 10 nM
Human recombinant FAP [3]
  IC50: < 10 nM

## CCCCCC(=O)N[C@H]1CSCc2cc(CSCCNC(=O)CN3CCN4CCN5CCN(CC3)CC(=O)[O][In]([O]C(=O)C4)[O]C(=O)C5)cc(c2)CSC[C@@H](C(=O)N(C)CC(=O)O)NC(=O)[C@H](Cc2ccccc2)NC(=O)[C@H](CCC(N)=O)NC(=O)[C@H]([C@@H](C)O)NC(=O)[C@@H]2CCCN2C(=O)[C@@H]2CCCN2C1=O [3BP-3715, Hex-[Cys(tMeBn(InDOTA-AET))-Pro-Pro-Thr-Gln-Phe-Cys]-Nmg-OH]
[1]
  IC50: < 10 nM
Human recombinant FAP [2]
  Kd: < 10 nM
Human recombinant FAP [3]
  IC50: < 10 nM

## CCCCCC(=O)N[C@H]1CSCc2cc(CSCCNC(=O)CN3CCN4CCN5CCN(CC3)CC(=O)[O][In]([O]C(=O)C4)[O]C(=O)C5)cc(c2)CSC[C@@H](C(=O)O)NC(=O)[C@H](Cc2ccccc2)NC(=O)[C@H](CCC(N)=O)NC(=O)[C@H]([C@@H](C)O)NC(=O)[C@@H]2CCCN2C(=O)CN(C)C1=O [3BP-3716, Hex-[Cys(tMeBn(InDOTA-AET))-Nmg-Pro-Thr-Gln-Phe-Cys]-OH] (Hexanoyl-C[Sar]PTQFC-OH; linker 1-7 via X7)
[1]
  IC50: < 10 nM
Human recombinant FAP [2]
  Kd: < 10 nM
Human recombinant FAP [3]
  IC50: < 10 nM

## CCCCCS(=O)(=O)N[C@H]1CSCc2cc(cc(CN3CCN(C(=O)CN4CCN5CCN6CCN(CC4)CC(=O)[O][In]([O]C(=O)C6)[O]C(=O)C5)CC3)c2)CSC[C@@H](C(=O)N[C@@H](CC(=O)O)C(N)=O)NC(=O)[C@H](Cc2ccccc2)NC(=O)[C@H](CCC(N)=O)NC(=O)[C@H]([C@@H](C)O)NC(=O)[C@@H]2CCCN2C(=O)[C@@H]2CCCN2C1=O [3BP-3717, Pentyl-SO2-[Cys(tMeBn(InDOTA-PP))-Pro-Pro-Thr-Gln-Phe-Cys]-Asp-NH2] (Pentanesulfonyl-CPPTQFCD-NH2; linker 1-7 via X4)
[1]
  IC50: < 10 nM
Human recombinant FAP [2]
  Kd: < 10 nM
Human recombinant FAP [3]
  IC50: < 10 nM

## CCCCCC(=O)N[C@H]1CSCc2cc(CSCCNC(=O)CN3CCN(CC(=O)O)CCN(CC(=O)O)CCN(CC(=O)O)CC3)cc(c2)CSC[C@@H](C(=O)NCCC(N)=O)NC(=O)[C@H](Cc2ccccc2)NC(=O)[C@H](CCC(N)=O)NC(=O)[C@H]([C@@H](C)O)NC(=O)[C@@H]2CCCN2C(=O)[C@@H]2CCCN2C1=O [3BP-3736, Hex-[Cys(tMeBn(DOTA-AET))-Pro-Pro-Thr-Gln-Phe-Cys]-Bal-NH2]
[1]
  IC50: < 10 nM
Human recombinant FAP [2]
  Kd: < 10 nM
Human recombinant FAP [3]
  IC50: < 10 nM

## CCCCCC(=O)N[C@H]1CSCc2cc(CSCCNC(=O)CN3CCN(CC(=O)O)CCN(CC(=O)O)CCN(CC(=O)O)CC3)cc(c2)CSC[C@@H](C(=O)N(C)CC(N)=O)NC(=O)[C@H](Cc2ccccc2)NC(=O)[C@H](CCC(N)=O)NC(=O)[C@H]([C@@H](C)O)NC(=O)[C@@H]2CCCN2C(=O)[C@@H]2CCCN2C1=O [3BP-3737, Hex-[Cys(tMeBn(DOTA-AET))-Pro-Pro-Thr-Gln-Phe-Cys]-Nmg-NH2]
[1]
  IC50: < 10 nM
Human recombinant FAP [2]
  Kd: < 10 nM
Human recombinant FAP [3]
  IC50: < 10 nM

## CCCCCC(=O)N[C@H]1CSCc2cc(CSCCNC(=O)CN3CCN4CCN5CCN(CC3)CC(=O)[O][Ga]([O]C(=O)C4)[O]C(=O)C5)cc(c2)CSC[C@@H](C(=O)O)NC(=O)[C@H](Cc2ccccc2)NC(=O)[C@H](CCC(N)=O)NC(=O)[C@H]([C@@H](C)O)NC(=O)[C@@H]2CCCN2C(=O)[C@@H]2CCCN2C1 [3BP-3949, Gallium-Complex of Hex-[Cys(tMeBn(DOTA-AET))-Pro-Pro-Thr-Gln-Phe-Cys]-OH]
[1]
  IC50: < 10 nM
Human recombinant FAP [2]
  Kd: < 10 nM
Human recombinant FAP [3]
  IC50: < 10 nM

## CCCCCC(=O)N[C@H]1CSCc2cc(CSCCNC(=O)C(CNCCN)CNCCN)cc(c2)CSC[C@@H](C(=O)O)NC(=O)[C@H](Cc2ccccc2)NC(=O)[C@H](CCC(N)=O)NC(=O)[C@H]([C@@H](C)O)NC(=O)[C@@H]2CCCN2C(=O)[C@@H]2CCCN2C1=O [3BP-4063, Hex-[Cys-(tMeBn(N4Ac-AET))-Pro-Pro-Thr-Gln-Phe-Cys]-OH]
[1]
  IC50: < 10 nM
Human recombinant FAP [2]
  Kd: < 10 nM
Human recombinant FAP [3]
  IC50: < 10 nM

## CCCCCC(=O)N[C@H]1CSCc2cc(CSCCNC(=O)COCCOCCNC(=O)C(CNCCN)CNCCN)cc(c2)CSC[C@@H](C(=O)O)NC(=O)[C@H](Cc2ccccc2)NC(=O)[C@H](CCC(N)=O)NC(=O)[C@H]([C@@H](C)O)NC(=O)[C@@H]2CCCN2C(=O)[C@@H]2CCCN2C1=O [3BP-4088, Hex-[Cys-(tMeBn(N4Ac-O2Oc-AET))-Pro-Pro-Thr-Gln-Phe-Cys]-OH]
[1]
  IC50: < 10 nM
Human recombinant FAP [2]
  Kd: < 10 nM
Human recombinant FAP [3]
  IC50: < 10 nM

## CCCC[C@H](NC(=O)CCC(=O)NCCCOCCOCCOCCCNC(=O)C(CNCCN)CNCCN)C(=O)N[C@H]1CSCc2cccc(c2)CSC[C@@H](C(=O)O)NC(=O)[C@H](Cc2ccccc2)NC(=O)[C@H](CCC(=O)O)NC(=O)[C@H]([C@@H](C)O)NC(=O)[C@@H]2CCCN2C(=O)[C@@H]2CCCN2C1=O [3BP-4161, N4Ac-Ttds-Nle-[Cys-(3MeBn)-Pro-Pro-Thr-Glu-Phe-Cys]-OH] ({X12-Suc}-[Nle]CPPTEFC-OH; linker 2-8 via mXylylene)
[1]
  IC50: < 10 nM
Human recombinant FAP [2]
  Kd: < 10 nM
Human recombinant FAP [3]
  IC50: < 10 nM

## CCCCCC(=O)N[C@H]1CSCc2cc(CSCCNC(=O)CC[C@H](C(=O)O)N3CCN(CC(=O)O)CN(CC(=O)O)C3)cc(c2)CSC[C@@H](C(=O)O)NC(=O)[C@H](Cc2ccccc2)NC(=O)[C@H](CCC(N)=O)NC(=O)[C@H]([C@@H](C)O)NC(=O)[C@@H]2CCCN2C(=O)[C@@H]2CCCN2C1=O [3BP-4162, Hex-[Cys-(tMeBn(NODAGA-AET))-Pro-Pro-Thr-Gln-Phe-Cys]-OH]
[1]
  IC50: < 10 nM
Human recombinant FAP [2]
  Kd: < 10 nM
Human recombinant FAP [3]
  IC50: < 10 nM

## CCCCCC(=O)N[C@H]1CSCc2cc(cc(CN3CCN(C(=O)C(CNCCN)CNCCN)CC3)c2)CSC[C@@H](C(=O)O)NC(=O)[C@H](Cc2ccccc2)NC(=O)[C@H](CCC(N)=O)NC(=O)[C@H]([C@@H](C)O)NC(=O)[C@@H]2CCCN2C(=O)[C@@H]2CCCN2C1=O [3BP-4168, Hex-[Cys-(tMeBn(N4Ac-PP))-Pro-Pro-Thr-Gln-Phe-Cys]-OH]
[1]
  IC50: < 10 nM
Human recombinant FAP [2]
  Kd: < 10 nM
Human recombinant FAP [3]
  IC50: < 10 nM

## CCCCCC(=O)N[C@H]1CSCc2cc(CSCCNC(=O)CCCN(C)C(=O)c3ccccc3-c3c4ccc(=N)c(S(=O)(=O)O)c-4oc4c(S(=O)(=O)O)c(N)ccc34)cc(c2)CSC[C@@H](C(=O)O)NC(=O)[C@H](Cc2ccccc2)NC(=O)[C@H](CCC(N)=O)NC(=O)[C@H]([C@@H](C)O)NC(=O)[C@@H]2CCCN2C(=O)[C@@H]2CCCN2C1=O [3BP-4182, Hex-[Cys(tMeBn(ATTO488-AET))-Pro-Pro-Thr-Gln-Phe-Cys]-OH]
[1]
  IC50: 10 to 79.4 nM
Human recombinant FAP [2]
  Kd: 10 to 79.4 nM
Human recombinant FAP [3]
  IC50: 10 to 79.4 nM
